Where two headings read alike, the source gives them in different places.
Tests used:
[1] = target: KCNQ4 potassium ion channel (Homo sapiens, UniProt P56696); assay: High throughput atomic absorption Rb+ efflux testing, CHO cell of KCNQ4 channel; assay type: cell-based; details: for EC50: CHO cell of KCNQ4 channel
Excerpt: Atomic absorption Rb^+ efflux testing is a fast and safe selection method for high throughput potassium channel moderator, and is characterized in that the activity of the ion channel and the control effect of the opener are directly reflected. Rb and K have similar atomic size, and potassium ion channel is permeable to Rb^+. By testing concentration of the Rb^+ efflux, a status of the potassium channel, which is an open status or a close status, can be determined. Rb has specific absorption at 780 nm, and Rb^+ concentration can be determined by atomic absorption spectroscopy. Accordingly, analysis method of atomic absorption spectroscopy can be used to select the opener/inhibitor of potassium channel through high throughput of Rb^+ efflux.
Stable cell transfer of CHO cell of KCNQ4 channel at log phase and inoculate in 96-well culture plate at a density of 2×10^4 unit/well. Each concentration has a triplicate-hole setting, and a control setting with solvent of corresponding concentration. Allow growth against the well-wall overnight, then discard the culture medium, add 200 μl loading buffer which contains RbCl, and culture in 5% CO2 at 37° C. for 3 hours. Then remove the loading buffer and wash with wash buffer for 3 times. Screen for the KCNQ opener, dilute testing compound with depolarization buffer, add 200 μl of the above solvent into the cell and allow reaction for 10 minutes. Incubate for 10 minutes, then carefully draw 200 μl supernatant to another 96-well culture plate, use ICR8000 atomic absorption spectrometry to determine the Rb^+ atomic absorption at 780 nm. Based on the equation Fsupern=(Rb_supern/cpd/Rb_supern/d)×100, calculate the corresponding rate of efflux.

KCNQ2/3 = target: T1, KCNQ2/3 (Homo sapiens, UniProt O43525+O43526); assay: High throughput atomic absorption Rb+ efflux testing, KCNQ2/3; assay type: cell-based; details: Rb+ efflux by atomic absorption
T1 construct: expressed in transfected cells

Male SD rats = assay: Formalin-induced pain model; assay type: in vivo; details: rat
Protocol: Pharmaceutical composition used: the compound number 42 for the testing group, no medication for the positive control group, which is a blank control model.
Testing method: Male SD rats are randomly divided into control group, ipsilateral treatment group (treatment on the same side) and contralateral treatment group (treatment on the opposite side). After 30 minutes from administration of pharmaceutical compound, administer 20 μl of 20 g/L formalin by subcutaneous injection in foot bottom of back paw on the same side or the opposite side of pharmaceutical compound administration, an occurrence of typical lateral swinging and shaking of rat's tail is deemed as successful in preparing induced-pain model, in the next 60 minutes, observe the rat's licking and biting behavior towards the formalin's injection paw at each 5-min interval.

[2] = Rb+ efflux by atomic absorption, read-out: KCNQ4

SMILES | EC50 [1, 2] | EC50 (KCNQ2/3) | other results
COc1ccc(-c2c(C(F)(F)F)nn3c(=O)cc(-c4cc(F)c(Cl)nc4Cl)[nH]c23)cc1OC [Compound 23] | 10.3 ± 0.43 µM | 22.1 ± 1.23 µM | –
O=c1cc(-c2cc(F)c(Cl)nc2Cl)[nH]c2c(-c3cccc4ccccc34)c(C(F)(F)F)nn12 [Compound 42] | – | 0.53 ± 0.28 µM | activating effect on the CHO cell of the KCNQ4 potassium ion channel ([1]; Rb+ efflux at 0.03, 0.1, 0.6, 1, 3 and 10 μM, FIG. 4): dose-dependent activating effect; EC50 ([1]; Rb+ efflux, 0.03-10 μM, FIG. 4, read-out: EC50): 0.96 ± 0.51 µM; accumulated time of licking/biting back paw, first phase (Male SD rats; 0-10 min after formalin injection, treatment vs control group, p>0.05): no significant difference; accumulated time of licking/biting back paw, second phase (Male SD rats; 10-60 min after formalin, ipsilateral treatment group vs control group, p<0.05): decrease in accumulated time of licking/biting back paw
O=C(Cc1ccc(C(F)(F)F)cc1)NCc1cc(=O)n2nc(C(F)(F)F)c(-c3ccccc3)c2[nH]1 [Compound 35] | 44.5 ± 5.28 µM | 138 ± 9.28 µM | –
O=c1cc(CCl)[nH]c2c(-c3cccc4ccccc34)c(C(F)(F)F)nn12 [Compound 39, 5-chloromethyl-3-(naphthalen-1-yl)-2-trifluoromethylpyrazolo[1,5-a]pyrimidin-7(4H)-one] | 21.7 ± 9.72 µM | 5.21 ± 3.21 µM | –
O=c1cc(-c2cc(F)c(Cl)nc2Cl)[nH]c2c(-c3ccc(F)cc3)c(C(F)(F)F)nn12 [Compound 22] | 0.15 ± 0.09 µM | 1.28 ± 0.12 µM | –
O=c1cc(C(F)(F)F)[nH]c2c(-c3cccc4ccccc34)c(C(F)(F)F)nn12 [Compound 38, 2,5-bis(trifluoromethyl)-3-(naphthalen-1-yl)pyrazolo[1,5-a]pyrimidin-7(4H)-one] | 4.82 ± 3.45 µM | 9.29 ± 26.3 µM | –
O=c1cc(CN2CCNCC2)[nH]c2c(-c3cccs3)c(C(F)(F)F)nn12 [Compound 61] | 33.3 ± 2.12 µM | 77.7 ± 21.3 µM | –
O=c1cc(C(F)(F)F)[nH]c2c(-c3ccccc3)c(C(F)(F)F)nn12 [Compound 20, 2,5 bis(trifluoromethyl)-3-phenylpyrazolo [1,5-a]pyrimidin-7(4H)-one] | 5.87 ± 2.67 µM | 1.28 ± 1.16 µM | –
O=c1cc(-c2cc(F)c(Cl)nc2Cl)[nH]c2c(-c3ccc(F)cc3)c(C(F)(F)F)nn12 [Compound 18, 5-(2,6-dichloro-5-fluoropyrindin-3-yl)-3-(4-fluorophenyl)-2-(trifluoromethyl)pyrazolo[1,5-a]pyrimidin-7(4H)-one] | 120 ± 3.23 µM | 78.7 ± 12.3 µM | –
O=c1cc(-c2ccccc2)[nH]c2c(-c3ccccc3)c(C(F)(F)F)nn12 [Compound 19, 3,5-diphenyl-2-(trifluoromethyl)pyrazolo[1,5-a]pyrimidin-7(4H)-one] | 62.1 ± 1.12 µM | 40.2 ± 2.34 µM | –
CCOC(=O)c1c(C(F)(F)F)nn2c(=O)cc(-c3ccccc3)[nH]c12 [Compound 5] | 67.8 ± 2.67 µM | 100 ± 13.3 µM | –
COc1ccc(-c2cc(=O)n3nc(C(F)(F)F)c(-c4cccc5ccccc45)c3[nH]2)cc1 [Compound 47, 5-(4-methoxyphenyl)-3-(naphthalen-1-yl)-2-trifluoromethylpyrazolo[1,5-a]pyrimidin-7(4H)-one] | 46.2 ± 2.34 µM | 89.2 ± 24.2 µM | –
O=c1cc(-c2cc(F)c(Cl)nc2Cl)[nH]c2c(-c3cccs3)c(C(F)(F)F)nn12 [Compound 60] | 1.14 ± 0.34 µM | 5.32 ± 2.23 µM | –
O=c1cc(-c2ccc(Cl)cc2)[nH]c2c(-c3ccc(F)cc3)c(C(F)(F)F)nn12 [Compound 8, 2-trifluoromethyl-3-(4-fluorophenyl)-5-(4-chlorophenyl)-pyrazole[1,5-a]pyrimidin-7(4H)-one] | 24.5 ± 4.67 µM | 4.76 ± 1.35 µM | –
COc1ccc(-c2c(C(F)(F)F)nn3c(=O)cc(C(F)(F)F)[nH]c23)cc1OC [Compound 2, 3-(3,4-dimethoxyphenyl)-2,5-bis(trifluoromethyl)pyrazolo[1,5-a]pyrimidin-7(4H)-one] | 12.1 ± 0.23 µM | 5.65 ± 3.13 µM | –
O=c1cc(-c2cccc([N+](=O)[O-])c2)[nH]c2c(-c3ccccc3)c(C(F)(F)F)nn12 [Compound 30, 5-(3-nitrophenyl)-3-phenyl-2-trifluoromethylpyrazolo[1,5-a]pyrimidin-7(4H)-one] | 12.2 ± 0.82 µM | 1.26 ± 0.68 µM | –
O=c1cc(CN2CCCCC2)[nH]c2c(-c3ccccc3)c(C(F)(F)F)nn12 [Compound 25, 5-(piperidin-1-ylmethyl)-3-phenyl-2-trifluoromethylpyrazolo[1,5-a]pyrimidin-7(4H)-one] | 35 ± 1.21 µM | 85.3 ± 3.45 µM | –

More lines, main results first:

EC50 [1, 2] | EC50 (KCNQ2/3) | SMILES | other results
60.6 ± 3.28 µM | 135 ± 32.2 µM | CCOC(=O)c1c(-c2ccc(Cl)cc2)nn2c(=O)cc(C(F)(F)F)[nH]c12 [Compound 73, ethyl 7-oxo-2-(4-chlorophenyl)-5-(trifluoromethyl)-4,7-dihydropyrazolo[1,5-a]pyrimidine-3-carboxylate] | –
91.2 ± 33.2 µM | 56.8 ± 19.4 µM | O=c1cc(CCl)[nH]c2c(-c3cccs3)c(Cl)nn12 [Compound 108, 2-chloro-3-(thiophen-2-yl)-5-chloromethylpyrazolo[1,5-a]pyrimidin-7(4H)-one] | –
5.41 ± 2.29 µM | – | O=c1cc(CCl)[nH]c2c(-c3cccs3)c(C(F)(F)F)nn12 [Compound 96, 5-chloromethyl-3-(thiophen-2-yl)-2-trifluoromethylpyrazolo[1,5-a]pyrimidin-7(4H)-one] | –
82.3 ± 19.3 µM | 32.2 ± 9.32 µM | O=c1cc(C(F)(F)F)[nH]c2c(-c3c[nH]c4ccccc34)c(-c3ccc(Cl)cc3)nn12 [Compound 77, 2-(4-chlorophenyl)-3-(1H-indol-3-yl)-5-trifluoromethylpyrazolo[1,5-a]pyrimidin-7(4H)-one] | –
50.1 ± 1.34 µM | 98.3 ± 65.2 µM | O=C(OCc1cc(=O)n2nc(C(F)(F)F)c(N3CCNCC3)c2[nH]1)C(F)(F)F [Compound 86, (2-trifluoromethyl-3-piperazinyl-7-oxo-4,7-dihydropyrazolo[1,5-a]pyrimidin-5-yl)methyl-2,2,2-trifluoroacetate] | –
0.54 ± 0.23 µM | 0.28 ± 0.32 µM | O=c1cc(-c2cc(F)c(Cl)nc2Cl)[nH]c2c(-c3cccs3)c(C(Cl)(Cl)Cl)nn12 [Compound 94, 5-(2,6-dichloro-5-fluoropyrido)-3-(thiophen-2-yl)-2-trichloromethyl pyrazolo[1,5-a]pyrimidin-7(4H)-one] | –
43.2 ± 13.7 µM | 210 ± 9.8 µM | O=C(NCc1cc(=O)n2nc(Cl)c(-c3ccc4ccccc4c3)c2[nH]1)C(F)(F)F [Compound 116, N-((2-chloro-3-(naphthalen-2-yl)-7-oxo-4,7-dihydropyrazolo[1,5-a]pyrimidin-5-yl)methyl)-2,2,2-trifluoroacetamide] | –
18.4 ± 1.34 µM | 54.5 ± 32.1 µM | O=c1cc(-c2cc(F)c(F)cc2F)[nH]c2c(-c3ccccc3)c(C(Cl)(Cl)Cl)nn12 [Compound 99, 3-phenyl-2-trichloromethyl-5-(2,4,5-trifluorophenyl)pyrazolo[1,5-a]pyrimidin-7(4H)-one] | –

Reference: patent publication US8796285B2, “Pyrazolo [1,5-a]-pyrimidones derivatives and pharmaceutical compositions and uses thereof” (Hebei Medical University, priority 2009, dated 2014)
